Experimental findings from patent publication US10934255B2, “Nrf and HIF activators/HDAC inhibitors and therapeutic methods using the same” (THE BOARD OF TRUSTEES OF THE UNIVERSITY OF ILLINOIS, priority 2017, dated 2021) are described below.

Read-outs that look alike come from different tables or passages of the source.

One test deals with Nrf2. Briefly: Nrf2 activation, Neh2-luc reporter assay. The test is classed as cell-based. Conditions: measured at 10 μM. As to the method:
The present compounds were evaluated for an ability to activate Nrf2 and HIF-1α. Table 1 summarizes Nrf2 activation data obtained in Neh2-luc reporter assay; and HIF1 activation measured in ODD reporter assay.

A further test concerns acetylated α-tubulin. The test is described as follows: Tubulin acetylation in N2a cells (western blot). Conditions: normalized to the values of DMSO. The test is classed as cell-based, mouse. As for the experimental part:
Cells were collected using RIPA buffer. WB was analyzed using Image QuantTL and the ratio between the intensity of the acetylated tubulin and the tubulin bands was calculated. These ratios were subsequently normalized to the values of DMSO (fold increase). For each sample 50 μg protein was loaded on a 12% SDS-PAGE gel and blotted on a PVDF membrane. The integrated density of acetylated α-tubulin and α-tubulin was measured on WB using Image J software. Furthermore the ratio between the integrated density of acetylated α-tubulin and α-tubulin was calculated.

The next test has as its target T1, Human HDAC1 (Homo sapiens, UniProt Q13547).
T1 construct: Full length with C-terminal GST tag, MW=79.9 kDa; GST (C); host or cells: Sf9 insect cells (baculovirus)
The test is described as follows: HDAC1 inhibition assay (fluorogenic p53 peptide substrate). The test is classed as biochemical. As to the method: The HDAC1, 2, 4, 5, 6, 7, 8, 9, 10, and 11 assays used isolated recombinant human protein; HDAC3/NcoR2 complex was used for the HDAC3 assay. Substrate for HDAC1, 2, 3, 6, 10, and 11 assays is a fluorogenic peptide from p53 residues 379-382 (RHKKAc); substrate for HDAC8 is fluorogenic diacyl peptide based on residues 379-382 of p53 (RHKAcKAc). Acetyl-Lys(trifluoroacetyl)-AMC substrate was used for HDAC4, 5, 7, and 9 assays. Compounds were dissolved in DMSO and tested in 10-dose IC50 mode with 3-fold serial dilution starting at 30 μM. Control Compound Trichostatin A (TSA) was tested in a 10-dose IC50 with 3-fold serial dilution starting at 5 μM. IC50 values were extracted by curve-fitting the dose/response slopes. Assays were performed in duplicate and IC50 values are an average of data from both experiments.
Human HDAC1 (GenBank Accession No. NM_004964): Full length with C-terminal GST tag, MW=79.9 kDa, expressed by baculovirus expression system in Sf9 cells. Enzyme is in 50 mM Tris-HCl, pH 8.0, 138 mM NaCl, 20 mM glutathione, and 10% glycerol, and stable for >6 months at −80° C. Purity is >10% by SDS-PAGE. Specific Activity is 20 U/μg, where one U=1 pmol/min under assay condition of 25 mM Tris/Cl, pH8.0, 137 mM NaCl, 2.7 mM KCl, 1 mM MgCl2, 0.1 mg/ml BSA, 100 μM HDAC substrate, and 13.2 ng/μl HDAC1, incubation for 30 min at 30° C.
Substrate for HDAC1 and HDAC6: Acetylated peptide substrate for HDAC, based on residues 379-382 of p53 (Arg-His-Lys-Lys(Ac)), a site of regulatory acetylation by the p300 and CBP acetyltransferases (lysines 381, 382)1-6, is the best for HDAC from among a panel of substrates patterned on p53, histone H3 and histone H4 acetylation sites7.
Reaction Buffer: 50 mM Tris-HCl, pH 8.0, 137 mM NaCl, 2.7 mM KCl, 1 mM MgCl2, 1 mg/ml BSA.
HDAC1: 75 nM HDAC1 and 50 μM HDAC substrate are in the reaction buffer and 1% DMSO final. Incubate for 2 hours at 30° C.
All IC50 values are automatically calculated using the GraphPad Prism version 5 and Equation of Sigmoidal dose-response (variable slope): Y=Bottom+(Top−Bottom)/(1+10^((Log EC50−X)*HillSlope)), where X is the logarithm of concentration, Y is the response, Y starts at Bottom and goes to Top with a sigmoid shape. In most cases, “Bottom” is set 0, and “Top” is set “less than 120%”. This is identical to the “four parameter logistic equation”. IC50 curves also are drawn using the GraphPad Prism, and IC50 values and Hill slopes are provided.
HDAC Activity Assays: HDAC assay is performed using fluorescently-labeled acetylated substrate, which comprises an acetylated lysine side chain. After incubation with HDAC, deacetylation of the substrate sensitizes the substrate such that, in a second step, treatment with the detection enzyme produces a fluorophore. HDACs 1 and 6 were expressed as full length fusion proteins. Purified proteins were incubated with 50 μM fluorescently-labeled acetylated peptide substrate and test compound for 2 hours at RT in HDAC assay buffer containing 50 mM Tris-HCl (pH 8.0), 137 mM NaCl, 2.7 mM KCl, 1 mM MgCl2, 1% DMSO, and 1% BSA.
Reactions were terminated by the addition of the Developer after 2 hours, and the development of fluorescence signal, which was relative to the amount of deacetylated peptide, was monitored by time-course measurement of EnVision (PerkinElmer). The HDAC activity was estimated from the slope of time-course measurement of the fluorescence intensity. The slope of no-enzyme control (substrate alone) was served as background, and % Enzyme activity was calculated using background-subtracted slope of no inhibitor control (DMSO) as 100% activity.

Where [1] appears, read: Table 1, performed by Reaction Biology Corporation, read-out: HDAC isoform IC50 (nM) 1.
The mark [2] stands for this setting: Table 2 isoform selectivity, read-out: HDAC Inhibition (IC50 uM) isoform 1.

T1 sequence (Q13547 whole entry): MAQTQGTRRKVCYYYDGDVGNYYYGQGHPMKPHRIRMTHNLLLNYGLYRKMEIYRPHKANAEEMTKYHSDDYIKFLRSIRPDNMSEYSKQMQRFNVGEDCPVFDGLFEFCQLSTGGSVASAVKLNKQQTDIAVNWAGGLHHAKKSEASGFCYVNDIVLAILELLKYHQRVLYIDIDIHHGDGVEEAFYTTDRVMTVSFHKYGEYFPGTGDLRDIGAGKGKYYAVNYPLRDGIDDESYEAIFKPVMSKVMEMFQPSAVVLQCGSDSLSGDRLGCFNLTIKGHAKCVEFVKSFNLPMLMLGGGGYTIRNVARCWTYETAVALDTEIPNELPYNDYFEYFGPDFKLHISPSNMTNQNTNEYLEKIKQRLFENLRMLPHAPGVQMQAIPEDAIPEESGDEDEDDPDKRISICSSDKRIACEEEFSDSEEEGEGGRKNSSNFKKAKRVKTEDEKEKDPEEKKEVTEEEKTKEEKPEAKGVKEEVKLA

Regarding `O=C(NO)c1ccc(CN2CCc3ccc(Cl)cc32)cc1` [II-ING-6, 4-((6-Chloroindolin-1-yl)methyl)-N-hydroxybenzamide], the fold induction at 10 µM with Nrf2 stood at 5.6. Moreover, the “Ratio acetyl tub/tub fold increase” value in the test with acetylated α-tubulin (1.0 uM) is 15.5 1.0 uM fold. For the same molecule, the IC50 at Human HDAC1 (setting [1]) worked out at 5580 nM; on Human HDAC1 (setting [2]), 3770 nM.

Molecule `Cn1c(NCc2ccc(C(=O)NO)cc2)nc2ccccc21` [II-ING-13, N-Hydroxy-4-(((1-methyl-1H-benzo[d]imidazol-2-yl)amino)methyl)benzamide] came in with a fold induction at 10 µM in the test with Nrf2 of 1.8. Also, the “Ratio acetyl tub/tub fold increase” value in the test with acetylated α-tubulin (0.01 uM) was 2.0 (0.01 uM) fold. Also, the 50% inhibitory concentration (IC50) at Human HDAC1 (setting [1]) is 2630 nM; at Human HDAC1 (setting [2]) it was 2550 nM.

Molecule `O=C(NO)c1ccc(CN2CCc3cc(Cl)ccc32)cc1` [II-ING-39, 4-((5-Chloroindolin-1-yl)methyl)-N-hydroxybenzamide] displayed a fold induction at 10 µM with Nrf2 of 6.5. Besides, in the test with acetylated α-tubulin (0.1 uM), the “Ratio acetyl tub/tub fold increase” value was 1.69 (0.1 uM) fold. For the same molecule, the IC50 at Human HDAC1 (setting [1]) came out at 12700 nM.

Take `O=C(NO)c1ccc(CN2CCc3ccc(F)cc32)cc1` [II-ING-41, 4-((6-Fluoroindolin-1-yl)methyl)-N-hydroxybenzamide]: the fold induction at 10 µM in the test on Nrf2 came to 7.8. In addition, in the test on acetylated α-tubulin (0.1 uM), the “Ratio acetyl tub/tub fold increase” value was 3.47 (0.1 uM) fold. Moreover, the results for the IC50 at Human HDAC1 (setting [1]) and on Human HDAC1 (setting [2]) were 11800 nM and 3670 nM, respectively.

As for `O=C(NO)c1ccc(CN2CCc3cc(F)ccc32)cc1` [II-ING-42, 4-((5-Fluoroindolin-1-yl)methyl)-N-hydroxybenzamide], the fold induction at 10 µM in the test with Nrf2 is 7.7. Further, in the test on acetylated α-tubulin (0.1 uM), the “Ratio acetyl tub/tub fold increase” value is 2.46 (0.1 uM) fold. The IC50 on Human HDAC1 (setting [1]) was found to be 20000 nM.

The molecule `O=C(NO)c1ccc(CN2CCc3ccccc32)cc1` [II-ING-44, N-Hydroxy-4-(indolin-1-ylmethyl)benzamide] showed a fold induction at 10 µM in the test on Nrf2 of 2.3. Moreover, the “Ratio acetyl tub/tub fold increase” value with acetylated α-tubulin (0.1 uM) is 2.68 (0.1 uM) fold. For the same molecule, at Human HDAC1 (setting [1]), the IC50 was determined as 17600 nM.

In turn, `COc1ccc2c(c1)CCN2Cc1ccc(C(=O)NO)cc1` [II-ING-49, N-Hydroxy-4-((5-methoxyindolin-1-yl)methyl)benzamide] gave a fold induction at 10 µM with Nrf2 of 2.4. In addition, in the test on acetylated α-tubulin (0.1 uM), the “Ratio acetyl tub/tub fold increase” value is 2.61 (0.1 uM) fold. The IC50 at Human HDAC1 (setting [1]) is 4950 nM.

As to `O=C(NO)c1ccc(CN2C(=O)C(F)(F)c3ccccc32)cc1` [II-ING-66, 4-((3,3-Difluoro-2-oxoindolin-1-yl)methyl)-N-hydroxybenzamide], the fold induction at 10 µM in the test on Nrf2 stood at 9.9. Also, the IC50 on Human HDAC1 (setting [1]) was determined as 3550 nM.
